Laboratory results reported in ChEMBL document CHEMBL1201862, “PubChem BioAssay data set” (2004).
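Method: 48-hour compound exposure of cells in 96-well plates, five concentrations, linear interpolation of endpoints. GI50: concentration for 50% inhibition of growth.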 Active and inactive are the calls of the source. Cut-off read from the data, not from the text of the source: active = GI50 up to about 1.1 µM and inactive = higher.

Key:
Experiment in all cases: NCI-60 cell line screen, 48 h
786-0 = tested on: 786-0
A498 = tested on: A498
A549 = tested on: A549
ACHN = tested on: ACHN
BT-549 = tested on: BT-549
CAKI-1 = tested on: CAKI-1
CCRF-CEM = tested on: CCRF-CEM
COLO 205 = tested on: COLO 205
DU-145 = tested on: DU-145
EKVX = tested on: EKVX
HCC 2998 = tested on: HCC 2998
HCT-116 = tested on: HCT-116
HCT-15 = tested on: HCT-15
HL-60 = tested on: HL-60
HOP-62 = tested on: HOP-62
HOP-92 = tested on: HOP-92
HT-29 = tested on: HT-29
Hs-578T = tested on: Hs-578T
IGROV-1 = tested on: IGROV-1
K562 = tested on: K562
KM12 = tested on: KM12
LOX IMVI = tested on: LOX IMVI
M14 = tested on: M14
MDA-MB-231 = tested on: MDA-MB-231
MDA-MB-435 = tested on: MDA-MB-435
MDA-N = tested on: MDA-N
MOLT-4 = tested on: MOLT-4
NCI-H226 = tested on: NCI-H226
NCI-H23 = tested on: NCI-H23
NCI-H460 = tested on: NCI-H460
NCI-H522 = tested on: NCI-H522
NCI/ADR-RES = tested on: NCI/ADR-RES
OVCAR-3 = tested on: OVCAR-3
OVCAR-4 = tested on: OVCAR-4
OVCAR-5 = tested on: OVCAR-5
OVCAR-8 = tested on: OVCAR-8
RPMI-8226 = tested on: RPMI-8226
SF-268 = tested on: SF-268
SF-295 = tested on: SF-295
SK-MEL-28 = tested on: SK-MEL-28
SK-MEL-2 = tested on: SK-MEL-2
SK-MEL-5 = tested on: SK-MEL-5
SK-OV-3 = tested on: SK-OV-3
SN12C = tested on: SN12C
SNB-75 = tested on: SNB-75
SR = tested on: SR
SW-620 = tested on: SW-620
T47D = tested on: T47D
TK-10 = tested on: TK-10
U-251 = tested on: U-251
UACC-257 = tested on: UACC-257
UACC-62 = tested on: UACC-62
UO-31 = tested on: UO-31
MCF7 = tested on: MCF7
RXF 393 = tested on: RXF 393
SF-539 = tested on: SF-539
SNB-19 = tested on: SNB-19
Malme-3M = tested on: Malme-3M

`COC(=O)[C@@H]1CCc2nc3ccccc3c(=O)n21` was tested, and the GI50 (786-0) was > 100 µM (inactive), the GI50 (A498) was > 100 µM (inactive) and the GI50 (A549) was > 100 µM (inactive). The GI50 (ACHN) was > 100 µM (inactive), the GI50 (BT-549) was > 100 µM (inactive) and the GI50 (CAKI-1) was > 100 µM (inactive). For the same molecule, the GI50 (CCRF-CEM) was > 100 µM (inactive), the GI50 (COLO 205) was > 100 µM (inactive) and the GI50 (DU-145) was > 100 µM (inactive). The GI50 (EKVX) was > 100 µM (inactive), the GI50 (HCC 2998) was > 100 µM (inactive) and the GI50 (HCT-116) was > 100 µM (inactive). For the same molecule, the GI50 (HCT-15) was > 100 µM, the GI50 (HL-60) was > 100 µM (inactive) and the GI50 (HOP-62) was > 100 µM (inactive). For the same molecule, the GI50 (HOP-92) was > 100 µM (inactive), the GI50 (HT-29) was > 100 µM (inactive) and the GI50 (Hs-578T) was > 100 µM (inactive). The GI50 (IGROV-1) was > 100 µM (inactive), the GI50 (K562) was > 100 µM (inactive) and the GI50 (KM12) was > 100 µM (inactive). For the same molecule, the GI50 (LOX IMVI) was > 100 µM (inactive), the GI50 (M14) was > 100 µM (inactive) and the GI50 (MDA-MB-231) was > 100 µM (inactive). For the same molecule, the GI50 (MDA-MB-435) was > 100 µM (inactive), the GI50 (MDA-N) was > 100 µM (inactive) and the GI50 (MOLT-4) was > 100 µM (inactive). The GI50 (NCI-H226) was 93.1 µM (inactive), the GI50 (NCI-H23) was > 100 µM (inactive) and the GI50 (NCI-H460) was > 100 µM (inactive). For the same molecule, the GI50 (NCI-H522) was > 100 µM (inactive), the GI50 (NCI/ADR-RES) was > 100 µM (inactive) and the GI50 (OVCAR-3) was > 100 µM (inactive). For the same molecule, the GI50 (OVCAR-4) was > 100 µM (inactive), the GI50 (OVCAR-5) was > 100 µM (inactive) and the GI50 (OVCAR-8) was > 100 µM (inactive). For the same molecule, the GI50 (RPMI-8226) was > 100 µM (inactive), the GI50 (SF-268) was > 100 µM (inactive) and the GI50 (SF-295) was > 100 µM (inactive). The GI50 (SK-MEL-28) was > 100 µM (inactive), the GI50 (SK-MEL-2) was > 100 µM (inactive) and the GI50 (SK-MEL-5) was > 100 µM (inactive). For the same molecule, the GI50 (SK-OV-3) was > 100 µM (inactive), the GI50 (SN12C) was > 100 µM (inactive) and the GI50 (SNB-75) was > 100 µM (inactive). The GI50 (SR) was > 100 µM (inactive), the GI50 (SW-620) was > 100 µM (inactive) and the GI50 (T47D) was > 100 µM (inactive). The GI50 (TK-10) was > 100 µM (inactive), the GI50 (U-251) was > 100 µM (inactive) and the GI50 (UACC-257) was > 100 µM (inactive). For the same molecule, the GI50 (UACC-62) was > 100 µM (inactive) and the GI50 (UO-31) was > 100 µM (inactive).
`NS(=O)(=O)c1nnc(NS(=O)(=O)c2cccc3cccnc23)s1` was tested, and the GI50 (786-0) was > 100 µM (inactive), the GI50 (A498) was > 100 µM (inactive) and the GI50 (A549) was > 100 µM (inactive). For the same molecule, the GI50 (ACHN) was > 100 µM (inactive), the GI50 (BT-549) was > 100 µM (inactive) and the GI50 (CAKI-1) was > 100 µM (inactive). The GI50 (CCRF-CEM) was > 100 µM (inactive), the GI50 (COLO 205) was > 100 µM (inactive) and the GI50 (DU-145) was > 100 µM (inactive). The GI50 (EKVX) was > 100 µM (inactive), the GI50 (HCC 2998) was > 100 µM (inactive) and the GI50 (HCT-116) was > 100 µM (inactive). For the same molecule, the GI50 (HCT-15) was > 100 µM, the GI50 (HOP-62) was > 100 µM (inactive) and the GI50 (HOP-92) was > 100 µM (inactive). The GI50 (Hs-578T) was > 100 µM (inactive), the GI50 (K562) was > 100 µM (inactive) and the GI50 (KM12) was > 100 µM (inactive). The GI50 (LOX IMVI) was > 100 µM (inactive), the GI50 (M14) was > 100 µM (inactive) and the GI50 (MCF7) was > 100 µM (inactive). The GI50 (MDA-MB-231) was > 100 µM (inactive), the GI50 (MDA-MB-435) was > 100 µM (inactive) and the GI50 (MDA-N) was > 100 µM (inactive). For the same molecule, the GI50 (MOLT-4) was > 100 µM (inactive), the GI50 (NCI-H226) was > 100 µM (inactive) and the GI50 (NCI-H23) was > 100 µM (inactive). For the same molecule, the GI50 (NCI-H460) was > 100 µM (inactive), the GI50 (NCI/ADR-RES) was > 100 µM (inactive) and the GI50 (OVCAR-3) was > 100 µM (inactive). The GI50 (OVCAR-4) was > 100 µM (inactive), the GI50 (OVCAR-5) was > 100 µM (inactive) and the GI50 (OVCAR-8) was > 100 µM (inactive). The GI50 (RPMI-8226) was > 100 µM (inactive), the GI50 (RXF 393) was > 100 µM (inactive) and the GI50 (SF-268) was > 100 µM (inactive). The GI50 (SF-295) was > 100 µM (inactive), the GI50 (SF-539) was > 100 µM (inactive) and the GI50 (SK-MEL-28) was > 100 µM (inactive). The GI50 (SK-MEL-2) was > 100 µM (inactive), the GI50 (SK-MEL-5) was > 100 µM (inactive) and the GI50 (SK-OV-3) was > 100 µM (inactive). The GI50 (SN12C) was > 100 µM (inactive), the GI50 (SNB-19) was > 100 µM (inactive) and the GI50 (SR) was 41.9 µM (inactive). The GI50 (SW-620) was > 100 µM (inactive), the GI50 (T47D) was > 100 µM (inactive) and the GI50 (TK-10) was > 100 µM (inactive). For the same molecule, the GI50 (U-251) was > 100 µM (inactive), the GI50 (UACC-257) was > 100 µM (inactive) and the GI50 (UACC-62) was > 100 µM (inactive). For the same molecule, the GI50 (UO-31) was > 100 µM (inactive).
In the case of `C[C@H]1CC[C@@H]2[C@@H](C)C[C@H]3[C@@H]4C(C)(C)OC(=O)[C@]4(C)C(=O)[C@@]23C1=O`, the GI50 (786-0) was > 100 µM (inactive), the GI50 (A498) was > 100 µM (inactive) and the GI50 (A549) was > 100 µM (inactive). The GI50 (ACHN) was > 100 µM (inactive), the GI50 (BT-549) was > 100 µM (inactive) and the GI50 (CAKI-1) was > 100 µM (inactive). For the same molecule, the GI50 (CCRF-CEM) was > 100 µM (inactive), the GI50 (COLO 205) was > 100 µM (inactive) and the GI50 (DU-145) was > 100 µM (inactive). For the same molecule, the GI50 (EKVX) was > 100 µM (inactive), the GI50 (HCC 2998) was > 100 µM (inactive) and the GI50 (HCT-116) was > 100 µM (inactive). For the same molecule, the GI50 (HCT-15) was > 100 µM, the GI50 (HL-60) was > 100 µM (inactive) and the GI50 (HOP-62) was > 100 µM (inactive). For the same molecule, the GI50 (HOP-92) was 85.5 µM (inactive), the GI50 (HT-29) was > 100 µM (inactive) and the GI50 (Hs-578T) was > 100 µM (inactive). For the same molecule, the GI50 (IGROV-1) was > 100 µM (inactive), the GI50 (K562) was > 100 µM (inactive) and the GI50 (KM12) was > 100 µM (inactive). The GI50 (LOX IMVI) was > 100 µM (inactive), the GI50 (M14) was > 100 µM (inactive) and the GI50 (MCF7) was > 100 µM (inactive). For the same molecule, the GI50 (MDA-MB-231) was 42.5 µM (inactive), the GI50 (MDA-MB-435) was > 100 µM (inactive) and the GI50 (MDA-N) was > 100 µM (inactive). For the same molecule, the GI50 (MOLT-4) was > 100 µM (inactive), the GI50 (Malme-3M) was > 100 µM (inactive) and the GI50 (NCI-H226) was > 100 µM (inactive). The GI50 (NCI-H23) was > 100 µM (inactive), the GI50 (NCI-H460) was > 100 µM (inactive) and the GI50 (NCI-H522) was 50.7 µM (inactive). For the same molecule, the GI50 (NCI/ADR-RES) was > 100 µM (inactive), the GI50 (OVCAR-3) was > 100 µM (inactive) and the GI50 (OVCAR-4) was > 100 µM (inactive). For the same molecule, the GI50 (OVCAR-5) was > 100 µM (inactive), the GI50 (OVCAR-8) was > 100 µM (inactive) and the GI50 (RPMI-8226) was > 100 µM (inactive). The GI50 (SF-268) was > 100 µM (inactive), the GI50 (SF-295) was > 100 µM (inactive) and the GI50 (SF-539) was > 100 µM (inactive). The GI50 (SK-MEL-28) was > 100 µM (inactive), the GI50 (SK-MEL-5) was > 100 µM (inactive) and the GI50 (SK-OV-3) was > 100 µM (inactive). The GI50 (SN12C) was > 100 µM (inactive), the GI50 (SNB-19) was > 100 µM (inactive) and the GI50 (SNB-75) was > 100 µM (inactive). For the same molecule, the GI50 (SW-620) was > 100 µM (inactive), the GI50 (T47D) was 14 µM (inactive) and the GI50 (TK-10) was > 100 µM (inactive). The GI50 (UACC-257) was > 100 µM (inactive) and the GI50 (UACC-62) was > 100 µM (inactive).
